Laboratory results taken from PubChem BioAssay (NCI).
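48-hour exposure; five concentrations; linearly interpolated endpoints. Definition used: TGI = concentration required for complete inhibition of growth.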

Experiments:
Assay in all cases: NCI tumour cell line growth inhibition, 48 h
[1] = system: ACHN renal
[2] = system: CCRF-CEM leukemia
[3] = system: NCI-H460 lung
[4] = system: HT29 colon
[5] = system: SK-MEL-5 melanoma
[6] = system: M14 melanoma
[7] = system: SNB-75 CNS
[8] = system: LOX IMVI melanoma
[9] = system: SF-295 CNS
[10] = system: OVCAR-3 ovarian
[11] = system: HCT-116 colon

Compound `CCCCN(CC)c1nc(C)nc2c1c(C)c(C)n2-c1c(C)cc(C)cc1C` has a TGI [1] of 28.1 µM, a TGI [2] of 32.7 µM and a TGI [3] of 27.5 µM. It also gave a TGI [4] of 22.6 µM, a TGI [5] of 17.6 µM and a TGI [6] of 35.6 µM. It also gave a TGI [7] of 27.4 µM, a TGI [8] of 30.4 µM and a TGI [9] of 28 µM. For the same compound, the TGI [10] was 26.6 µM and the TGI [11] was 23.4 µM.

`Cc1cc(-c2nc3ccccc3s2)ccc1NS(=O)(=O)O` was tested, and the TGI [1] was over 100 µM, the TGI [2] was over 100 µM and the TGI [3] was over 100 µM. The TGI [4] was over 100 µM, the TGI [5] was over 100 µM and the TGI [6] was over 100 µM. For the same compound, the TGI [7] was over 100 µM, the TGI [8] was over 51.2 µM and the TGI [9] was over 100 µM. For the same compound, the TGI [10] was over 100 µM and the TGI [11] was over 100 µM.

Compound `COc1ncc(C=C(C#N)C#N)c(OC)n1` has a TGI [1] of over 100 µM, a TGI [2] of 32.6 µM and a TGI [3] of over 100 µM. The TGI [4] was over 100 µM, the TGI [5] was over 100 µM and the TGI [6] was 40.9 µM. For the same compound, the TGI [7] was over 100 µM, the TGI [8] was over 100 µM and the TGI [9] was over 100 µM. The TGI [10] was over 100 µM and the TGI [11] was 74.9 µM.

Work on `N#C/C(=C\NC(=S)Nc1ccc(S(=O)(=O)Nc2ccccn2)cc1)C(N)=O` yielded a TGI [1] of over 100 µM, a TGI [2] of over 100 µM and a TGI [3] of over 100 µM. For the same compound, the TGI [4] was over 100 µM, the TGI [5] was over 100 µM and the TGI [6] was over 100 µM. The TGI [7] was over 100 µM, the TGI [8] was over 100 µM and the TGI [9] was over 100 µM. The TGI [10] was over 100 µM and the TGI [11] was over 100 µM.

`O=C1CC(c2ccco2)C2(C(=O)NC(=O)NC2=O)C(c2ccco2)C1` (centres undefined) gave a TGI [1] of over 75 µM, a TGI [2] of over 75 µM and a TGI [3] of over 75 µM. The TGI [4] was over 75 µM, the TGI [5] was over 75 µM and the TGI [6] was over 75 µM. For the same compound, the TGI [7] was over 75 µM, the TGI [8] was over 75 µM and the TGI [9] was over 75 µM. It also gave a TGI [10] of over 75 µM and a TGI [11] of over 75 µM.

With `Oc1ccccc1C(c1cc2c(cc1O)OCO2)N1CCOCC1` (centres undefined) the TGI [1] was 31.5 µM, the TGI [2] was 5.26 µM and the TGI [3] was 72.7 µM. It also gave a TGI [4] of 35.2 µM, a TGI [5] of 31.7 µM and a TGI [6] of 34.3 µM. It also gave a TGI [7] of 32 µM, a TGI [8] of 43.4 µM and a TGI [9] of 41.6 µM. It also gave a TGI [10] of 31.6 µM and a TGI [11] of 31.5 µM.

`CCOC(=O)C1=C(C)N(c2ccccc2)C2=C(C(=O)N(c3ccccc3)C2c2ccccc2)C1c1ccccc1` (centres undefined) gave a TGI [1] of over 100 µM, a TGI [2] of over 100 µM and a TGI [3] of over 100 µM. It also gave a TGI [4] of over 100 µM, a TGI [5] of over 100 µM and a TGI [6] of over 100 µM. For the same compound, the TGI [7] was over 100 µM, the TGI [8] was over 100 µM and the TGI [9] was over 100 µM. The TGI [10] was over 100 µM and the TGI [11] was over 100 µM.

Compound `COc1ccc(Nc2c(C#N)c3n(c4ccccc24)c2ccccc2[n+]3C)cc1OC` has a TGI [1] of 7.86 µM, a TGI [2] of over 100 µM and a TGI [3] of 6.46 µM. The TGI [4] was 23 µM, the TGI [5] was 15.5 µM and the TGI [6] was 8.01 µM. The TGI [7] was 9.52 µM, the TGI [8] was 7.23 µM and the TGI [9] was 11 µM. It also gave a TGI [10] of 11 µM and a TGI [11] of 7.56 µM.

Compound `CO[C@@H](C(=O)OC1C=CC2(CC1)C(=O)N(C)c1ccccc12)c1ccccc1` (some centres undefined) has a TGI [1] of over 100 µM, a TGI [2] of over 100 µM and a TGI [3] of over 100 µM. The TGI [4] was over 100 µM, the TGI [5] was over 100 µM and the TGI [6] was over 100 µM. It also gave a TGI [7] of over 100 µM, a TGI [8] of over 100 µM and a TGI [9] of over 100 µM. For the same compound, the TGI [10] was over 100 µM and the TGI [11] was over 100 µM.

Compound `CC(=O)NC1C(OCc2ccccc2)OC(CO)C(O)C1OCC(=O)N[C@@H](C)C(=O)N[C@H](CCC(=O)NCCNCCNc1c2ccccc2nc2cccc([N+](=O)[O-])c12)C(N)=O` (some centres undefined) has a TGI [1] of 79.6 µM, a TGI [2] of over 100 µM and a TGI [3] of 36.5 µM. It also gave a TGI [4] of 72.3 µM, a TGI [5] of 39.5 µM and a TGI [6] of over 100 µM. It also gave a TGI [7] of over 100 µM, a TGI [8] of 61.9 µM and a TGI [9] of over 100 µM. The TGI [10] was over 100 µM and the TGI [11] was 54.8 µM.

Work on `O=c1[nH]cnc2c(C3OC(CO)C(O)C3O)c[nH]c12` (centres undefined) yielded a TGI [1] of over 100 µM, a TGI [2] of over 100 µM and a TGI [3] of over 100 µM. The TGI [4] was over 100 µM, the TGI [5] was over 100 µM and the TGI [6] was over 100 µM. It also gave a TGI [7] of over 100 µM, a TGI [8] of over 100 µM and a TGI [9] of over 100 µM. For the same compound, the TGI [10] was over 100 µM and the TGI [11] was over 100 µM.

With `CC(C)C(Sc1nc(-c2ccccc2)c(-c2ccccc2)[nH]1)C(=O)NNC(=S)Nc1ccccc1` (centres undefined) the TGI [1] was 87 µM, the TGI [2] was 38 µM and the TGI [3] was 33.9 µM. For the same compound, the TGI [4] was 36.8 µM, the TGI [5] was 25.4 µM and the TGI [6] was 30.6 µM. The TGI [7] was 53.6 µM, the TGI [8] was 29.3 µM and the TGI [9] was 35.5 µM. It also gave a TGI [10] of 29 µM and a TGI [11] of 42.2 µM.

In the case of `COc1ccc(N2C(=O)C3c4[nH]c5ccc([N+](=O)[O-])cc5c4C4CCC(C(C)(C)C)CC4C3C2=O)cc1` (centres undefined), the TGI [1] is reported as 63.6 µM, the TGI [2] is reported as over 100 µM and the TGI [3] is reported as 63.9 µM. For the same compound, the TGI [4] was 20.1 µM, the TGI [5] was 33.8 µM and the TGI [6] was over 100 µM. For the same compound, the TGI [7] was over 100 µM, the TGI [8] was over 100 µM and the TGI [9] was over 100 µM. It also gave a TGI [10] of 49.5 µM and a TGI [11] of 23.9 µM.

With `[N-]=[N+]=Nc1c(Cl)c(=O)n(-c2ccccc2)c2ccccc12` the TGI [1] was 49.2 µM, the TGI [2] was 56.6 µM and the TGI [3] was over 100 µM. The TGI [4] was 59.3 µM, the TGI [5] was 18.5 µM and the TGI [6] was 36.3 µM. The TGI [7] was 50.8 µM, the TGI [8] was 29.5 µM and the TGI [9] was over 100 µM. The TGI [10] was 39 µM and the TGI [11] was 33.4 µM.

In the case of `CCOC(=O)c1cc2c([N+](=O)[O-])c(NC(C)=O)ccc2s1`, the TGI [1] is reported as over 100 µM, the TGI [2] is reported as over 100 µM and the TGI [3] is reported as over 100 µM. The TGI [4] was over 100 µM, the TGI [5] was over 100 µM and the TGI [6] was over 100 µM. It also gave a TGI [7] of 94.1 µM, a TGI [8] of over 100 µM and a TGI [9] of over 100 µM. It also gave a TGI [10] of over 100 µM and a TGI [11] of over 100 µM.

For `C[N+](C)(C)CC(=O)N/N=c1\cc(C(=O)Nc2ccc(N=O)cc2C#N)oc2cc(O)ccc12`, the TGI [1] was over 100 µM, the TGI [2] was over 100 µM and the TGI [3] was over 100 µM. For the same compound, the TGI [4] was over 100 µM, the TGI [5] was over 100 µM and the TGI [6] was over 100 µM. It also gave a TGI [7] of over 100 µM, a TGI [8] of over 100 µM and a TGI [9] of over 100 µM. The TGI [10] was over 100 µM and the TGI [11] was over 100 µM.

Work on `C=CC(=O)c1ccc2c(c1)OCCOCCOCCOCCOCCO2` yielded a TGI [1] of 31.9 µM, a TGI [2] of over 100 µM and a TGI [3] of over 100 µM. The TGI [4] was over 56.5 µM, the TGI [5] was over 100 µM and the TGI [6] was 41.6 µM. It also gave a TGI [7] of over 91.6 µM, a TGI [8] of 35.6 µM and a TGI [9] of over 100 µM. The TGI [10] was 35.4 µM and the TGI [11] was over 56.2 µM.

Work on `CCOC(=O)C(OCC1CC=CCC1)Sc1ccccc1` (centres undefined) yielded a TGI [1] of over 100 µM, a TGI [2] of over 100 µM and a TGI [3] of over 100 µM. For the same compound, the TGI [4] was over 100 µM, the TGI [5] was over 100 µM and the TGI [6] was over 100 µM. The TGI [7] was over 100 µM, the TGI [8] was over 100 µM and the TGI [9] was over 100 µM. It also gave a TGI [10] of over 100 µM and a TGI [11] of over 100 µM.

With `Clc1nc(Cl)nc(NC23CC4CC(CC(C4)C2)C3)n1` the TGI [1] was over 57.7 µM, the TGI [2] was 23.1 µM and the TGI [3] was 60.4 µM. It also gave a TGI [4] of 37.9 µM, a TGI [5] of 26.6 µM and a TGI [6] of 33.6 µM. For the same compound, the TGI [7] was 36.5 µM, the TGI [8] was 26.9 µM and the TGI [9] was 45.9 µM. The TGI [10] was 37.7 µM and the TGI [11] was 31.3 µM.
